Key:
GLP-1R = target: T1, GLP-1R (Homo sapiens, UniProt P43220); assay: In vitro GLP-1R agonistic activity test (cAMP kit); type: cell-based; conditions: HEK293 host cells
T1 construct: host or cells: HEK293
Protocol: (§1) The cell lines were constructed by Wuxi […] (Shanghai) Co., Ltd. See details in Table 1 below. [table] [table] The test compounds were diluted at a 4-fold dilution factor in 10 points, starting from an initial concentration of 30 μM. The dilution was carried out by Bravo. • 1) 100 nL of compounds were transferred to an OptiPlate-384 plate by Echo. • 2) The OptiPlate-384 plate was centrifuged at 1000 rpm for 5 s. • 1) A GLP-1R/GIPR cell cryovial was placed in warm water at 37° C. for rapid thawing. • 2) The cell suspension was transferred into a 15 mL Transfer centrifugal tube and rinsed with 10 mL of HBSS gently. • 3) The centrifugal tube was centrifuged at 1000 rpm at room temperature for 1 min. • 4) The supernatant was discarded. • 5) The bottom cells were gently dispersed, then gently rinsed with 10 mL of HBSS, the centrifugal tube was centrifuged to settle the cells, and finally the cells were resuspended in an experimental buffer. • 6) Cell density and viability were measured by Vi-cell. • 7) The GLP-1R/GIPR cells were diluted with the experimental buffer to a concentration of 2.0*10^5/mL. • 8) […] of the diluted cell suspension was transferred into the OptiPlate-384 plate. • 9) Incubation was performed at room temperature for 30 min. • 1) 10 μL of 800 nM gradient diluted cAMP standard was added into the empty wells of the OptiPlate-384 plate. • 2) 10 μL of cAMP assay reagent was added. • 3) The OptiPlate-384 plate was covered with TopSeal-A film and incubated at room temperature for 60 min. The TopSeal-A film was removed, and readout was performed on En Vision.

GIPR = target: T2, GIPR (Homo sapiens, UniProt P48546); assay: In vitro GIPR agonistic activity test (cAMP kit); type: cell-based; conditions: CHO host cells
T2 construct: host or cells: CHO
T2 sequence (P48546 22-466): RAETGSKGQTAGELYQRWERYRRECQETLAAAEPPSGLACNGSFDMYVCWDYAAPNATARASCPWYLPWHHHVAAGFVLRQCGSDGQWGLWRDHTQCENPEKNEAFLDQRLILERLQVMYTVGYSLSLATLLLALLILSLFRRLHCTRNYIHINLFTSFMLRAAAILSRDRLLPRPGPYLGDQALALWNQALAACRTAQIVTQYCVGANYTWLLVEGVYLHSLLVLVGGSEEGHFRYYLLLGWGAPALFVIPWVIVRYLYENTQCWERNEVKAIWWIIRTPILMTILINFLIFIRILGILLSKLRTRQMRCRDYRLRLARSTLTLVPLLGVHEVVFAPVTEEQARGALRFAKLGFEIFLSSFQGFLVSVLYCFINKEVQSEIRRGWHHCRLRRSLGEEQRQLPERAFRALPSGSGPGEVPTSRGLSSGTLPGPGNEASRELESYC
Protocol: as §1, with “[table] [table]” left out

in vivo = assay: in vivo; design: species or system Cynomolgus macaques; conditions: cynomolgus monkey, sc, 0.02 mg/kg
Protocol: The pharmacokinetic characteristics in mammals following intravenous injection and subcutaneous injection of the compounds were tested using standard protocols. In the experiment, the candidate compounds were formulated into clear solution, which was administered to Cynomolgus macaques by single subcutaneous injection (SC, 0.02 mpk). The vehicle for subcutaneous injection was citrate buffer solution (20 mM, pH=7). The whole blood was collected and processed to get the plasma. The drug concentration was analyzed by LC-MS/MS, and the pharmacokinetic parameters were calculated using Phoenix WinNonlin software.

in vitro = in vitro ADME; conditions: mouse, plasma
Protocol: To study the stability of the test compounds in the plasma of normal mice. • 1. Before the experiment, the clotted frozen plasma was thawed in a water bath at 37° C. The resulting plasma was centrifuged at 4000 rpm for 5 min. If there is blood clot, remove the clot and adjust the pH to 7.4±0.1. • 2. The test compound solution was prepared by diluting the compounds with DMSO to prepare a solution of 100 μM. • 3. 98 μL of plasma, as a blank control, was added with 2 μL of the test compound solution (100 μM) to get a mixed solution with a final concentration of 2 μM, which was incubated in a water bath at 37° C. • 4. 100 μL of H3PO4 solution and 800 μL of stop solution (a 100% solution of 200 ng/mL tolbutamide and 200 ng/ml labetalol in methanol) were respectively added at each time point (0, 10, 30, 60, and 120 min) to precipitate protein, which was then mixed thoroughly. • 5. The samples were centrifuged at 4000 rpm for 20 min, and 100 μL of supernatant was taken from each well for LC-MS/MS analysis.

T1 sequence (P43220 24-463, species assumed): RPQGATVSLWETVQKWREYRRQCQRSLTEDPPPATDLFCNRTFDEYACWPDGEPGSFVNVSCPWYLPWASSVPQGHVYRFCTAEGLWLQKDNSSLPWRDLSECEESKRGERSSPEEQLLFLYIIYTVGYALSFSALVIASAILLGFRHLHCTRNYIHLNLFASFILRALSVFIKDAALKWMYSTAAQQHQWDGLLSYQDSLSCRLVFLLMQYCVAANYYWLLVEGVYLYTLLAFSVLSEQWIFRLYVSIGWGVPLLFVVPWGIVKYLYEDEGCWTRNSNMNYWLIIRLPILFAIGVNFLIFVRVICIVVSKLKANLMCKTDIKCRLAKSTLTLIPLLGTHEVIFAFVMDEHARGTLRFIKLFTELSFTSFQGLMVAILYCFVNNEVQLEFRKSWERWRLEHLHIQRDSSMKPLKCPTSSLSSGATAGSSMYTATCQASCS

Row | SMILES | EC50 (GLP-1R; with 1% HSA) [nM] | EC50 (GLP-1R; without 1% HSA) [nM] | EC50 (GIPR; with 1% HSA) [nM] | EC50 (GIPR; without 1% HSA) [nM] | AUC(0-t) (in vivo) [µM·h] | Cmax (in vivo) [nM] | Tmax (in vivo) [h] | half-life (in vivo) [h] | half-life (in vitro) [h] | half-life at 2 μM (in vitro; pH 7.4) [h]
1 | CC[C@H](C)[C@H](NC(=O)[C@H](CC(C)C)NC(=O)[C@H](Cc1c[nH]c2ccccc12)NC(=O)[C@H](CCC(=O)O)NC(=O)[C@@H](NC(=O)[C@H](Cc1ccccc1)NC(=O)[C@H](C)NC(=O)[C@@H]1CCCCNC(=O)CN(C(=O)COCCOCCNC(=O)COCCOCCNC(=O)CC[C@H](NC(=O)CCCCCCCCCCCCCCCCCCC(=O)O)C(=O)O)CC(=O)NCCCC[C@H](NC(=O)[C@H](CCCCN)NC(=O)[C@H](CC(=O)O)NC(=O)[C@H](CC(C)C)NC(=O)C(C)(C)NC(=O)[C@@H](NC(=O)[C@H](CO)NC(=O)[C@H](Cc2ccc(O)cc2)NC(=O)[C@H](CC(=O)O)NC(=O)[C@H](CO)NC(=O)[C@@H](NC(=O)[C@H](Cc2ccccc2)NC(=O)[C@@H](NC(=O)CNC(=O)[C@H](CCC(=O)O)NC(=O)C(C)(C)NC(=O)[C@@H](N)Cc2ccc(O)cc2)[C@@H](C)O)[C@@H](C)O)[C@@H](C)CC)C(=O)N[C@@H](C)C(=O)N[C@@H](CCC(N)=O)C(=O)N1)C(C)C)C(=O)N[C@@H](C)C(=O)NCC(=O)NCC(=O)N1CCC[C@H]1C(=O)N[C@@H](CO)C(=O)N[C@@H](CO)C(=O)NCC(=O)N[C@@H](C)C(=O)N1CCC[C@H]1C(=O)N1CCC[C@H]1C(=O)N1CCC[C@H]1C(=O)N[C@@H](CO)C(N)=O [WX-005] | 7.63 | 0.036 | 19.3 | 0.16 | 4.47 | 36 | 24 | 100 | > 4.82 | 
2 | CC[C@H](C)[C@H](NC(=O)[C@H](CC(C)C)NC(=O)[C@H](Cc1c[nH]c2ccccc12)NC(=O)[C@H](CCC(=O)O)NC(=O)[C@@H](NC(=O)[C@H](Cc1ccccc1)NC(=O)[C@H](CCC(=O)O)NC(=O)[C@@H]1CCCCNC(=O)CN(C(=O)COCCOCCNC(=O)COCCOCCNC(=O)CC[C@H](NC(=O)CCCCCCCCCCCCCCCCCCC(=O)O)C(=O)O)CC(=O)NCCCC[C@H](NC(=O)[C@H](CCCCN)NC(=O)[C@H](CC(=O)O)NC(=O)[C@H](CC(C)C)NC(=O)C(C)(C)NC(=O)[C@@H](NC(=O)[C@H](CO)NC(=O)[C@H](Cc2ccc(O)cc2)NC(=O)[C@H](CC(=O)O)NC(=O)[C@H](CO)NC(=O)[C@@H](NC(=O)[C@H](Cc2ccccc2)NC(=O)[C@@H](NC(=O)CNC(=O)[C@H](CCC(=O)O)NC(=O)C(C)(C)NC(=O)[C@@H](N)Cc2ccc(O)cc2)[C@@H](C)O)[C@@H](C)O)[C@@H](C)CC)C(=O)N[C@@H](C)C(=O)N[C@@H](CCC(N)=O)C(=O)N1)C(C)C)C(=O)N[C@@H](C)C(=O)NCC(=O)NCC(=O)N1CCC[C@H]1C(=O)N[C@@H](CO)C(=O)N[C@@H](CO)C(=O)NCC(=O)N[C@@H](C)C(=O)N1CCC[C@H]1C(=O)N1CCC[C@H]1C(=O)N1CCC[C@H]1C(=O)N[C@@H](CO)C(N)=O [WX-009] |  | 0.014 |  | 0.074 |  | 37 | 24 |  |  | > 3.98
